Source: US20150044296A1, “COMBINATION THERAPY TO IMPROVE JOINT, TENDON, AND LIGAMENT HEALING” (priority 2012, published 2015)

Test system: trephine defect (bony healing)
Assay: Bony healing of trephine defect after systemic treatment
Assay type: in vivo, mice
Conditions: systemic administration

SMILES | bony ingrowth / bony regeneration
c1cc(CN2CCCNCCNCCCNCC2)ccc1CN1CCCNCCNCCCNCC1 [AMD3100] | 59.7%
CC[C@H](C)[C@H](NC(=O)[C@H](CCC(=O)O)NC(=O)[C@H](CO)NC(=O)[C@@H](NC(=O)[C@@H](N)CO)C(C)C)C(=O)N[C@@H](CCC(N)=O)C(=O)N[C@@H](CC(C)C)C(=O)N[C@@H](CCSC)C(=O)N[C@@H](Cc1cnc[nH]1)C(=O)N[C@@H](CC(N)=O)C(=O)N[C@@H](CC(C)C)C(=O)NCC(=O)N[C@@H](CCCCN)C(=O)N[C@@H](Cc1cnc[nH]1)C(=O)N[C@@H](CC(C)C)C(=O)N[C@@H](CC(N)=O)C(=O)N[C@@H](CO)C(=O)N[C@@H](CCSC)C(=O)N[C@@H](CCC(=O)O)C(=O)N[C@@H](CCCN=C(N)N)C(=O)N[C@H](C(=O)N[C@@H](CCC(=O)O)C(=O)N[C@@H](Cc1c[nH]c2ccccc12)C(=O)N[C@@H](CC(C)C)C(=O)N[C@@H](CCCN=C(N)N)C(=O)N[C@@H](CCCCN)C(=O)N[C@@H](CCCCN)C(=O)N[C@@H](CC(C)C)C(=O)N[C@@H](CCC(N)=O)C(=O)N[C@@H](CC(=O)O)C(=O)N[C@H](C(=O)N[C@@H](Cc1cnc[nH]1)C(=O)N[C@@H](CC(N)=O)C(=O)N[C@@H](Cc1ccccc1)C(=O)O)C(C)C)C(C)C [PTH] | 56%
